IC50 data for 14 compounds are collected here from US20250361230A1, “LATS Inhibitors and Uses Thereof” (The USA, as Represented by the Secretary, Dept. of Heath …, priority 2022, published 2025).

Like-named read-outs stand apart in the source and are kept apart here.

What all share (format): biochemical
In one test the target is AKT (Homo sapiens, UniProt P31749). As to the kind of experiment: RBC HotSpot kinase assay (33P-ATP, P81 filter-binding), AKT. Particulars: read-out: AKT IC50. Here is the method: (§1) Biochemical kinase inhibitory data was obtained for various exemplary compounds prepared according to the above.
AKT, sequence (P31749 whole entry): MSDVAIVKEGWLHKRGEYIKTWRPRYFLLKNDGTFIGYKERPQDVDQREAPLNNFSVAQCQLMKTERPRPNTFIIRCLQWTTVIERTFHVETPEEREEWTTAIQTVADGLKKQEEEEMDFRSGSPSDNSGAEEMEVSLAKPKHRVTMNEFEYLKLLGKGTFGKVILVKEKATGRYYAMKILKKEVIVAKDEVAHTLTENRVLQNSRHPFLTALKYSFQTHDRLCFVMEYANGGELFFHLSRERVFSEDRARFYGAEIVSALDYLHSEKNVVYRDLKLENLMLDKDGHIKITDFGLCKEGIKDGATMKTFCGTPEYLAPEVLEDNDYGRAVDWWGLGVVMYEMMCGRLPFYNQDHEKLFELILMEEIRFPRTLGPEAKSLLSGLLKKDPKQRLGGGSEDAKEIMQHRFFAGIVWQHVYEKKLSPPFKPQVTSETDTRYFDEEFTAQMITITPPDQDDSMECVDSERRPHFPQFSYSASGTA
(§2) The reagents used are as follows: Base Reaction buffer; 20 mM Hepes (pH 7.5), 10 mM MgCl2, 1 mM EGTA, 0.01% Brij35, 0.02 mg/ml BSA, 0.1 mM Na3VO4, 2 mM DTT, […]. Required cofactors were added individually to each kinase reaction.
(§3) The reaction procedure was as follows: • 1) Substrates were prepared in freshly prepared Reaction Buffer. • 2) Any required cofactors were delivered to the substrate solution above. • 3) Kinase was delivered into the substrate solution and gently mixed. • 4) Compounds were delivered in 100% DMSO into the kinase reaction mixture by Acoustic technology (Echo550; nanoliter range), followed by incubation for 20 min at room temp. • 5) ^33P-ATP was delivered into the reaction mixture to initiate the reaction. • 6) The mixture was incubated for 2 hours at room temperature. • 7) Kinase activity was detected by P81 filter-binding method.
(§4) Using the above functional assay, the inhibitory activity of the compounds for LATS1/2 versus AKT was characterized. The assays were typically run in a 10-point curve, in singlet, to produce a titration curve from which an IC50 value was obtained.
(§5) The reagents used are as follows: Base Reaction buffer; 20 mM Hepes (pH 7.5), 10 mM MgCl2, 1 mM EGTA, 0.01% Brij35, 0.02 mg/ml BSA, 0.1 mM Na3VO4, 2 mM DTT, 1% DMSO. Required cofactors were added individually to each kinase reaction.
(§6) Biochemical kinase inhibitory data was obtained for various exemplary compounds prepared according to the above in accordance with the protocols described in Examples 4 and 8. All biological activities are IC50, in nM.

The next test deals with T1, LATS1 (Homo sapiens, UniProt O95835).
T1 sequence (O95835 1-1130): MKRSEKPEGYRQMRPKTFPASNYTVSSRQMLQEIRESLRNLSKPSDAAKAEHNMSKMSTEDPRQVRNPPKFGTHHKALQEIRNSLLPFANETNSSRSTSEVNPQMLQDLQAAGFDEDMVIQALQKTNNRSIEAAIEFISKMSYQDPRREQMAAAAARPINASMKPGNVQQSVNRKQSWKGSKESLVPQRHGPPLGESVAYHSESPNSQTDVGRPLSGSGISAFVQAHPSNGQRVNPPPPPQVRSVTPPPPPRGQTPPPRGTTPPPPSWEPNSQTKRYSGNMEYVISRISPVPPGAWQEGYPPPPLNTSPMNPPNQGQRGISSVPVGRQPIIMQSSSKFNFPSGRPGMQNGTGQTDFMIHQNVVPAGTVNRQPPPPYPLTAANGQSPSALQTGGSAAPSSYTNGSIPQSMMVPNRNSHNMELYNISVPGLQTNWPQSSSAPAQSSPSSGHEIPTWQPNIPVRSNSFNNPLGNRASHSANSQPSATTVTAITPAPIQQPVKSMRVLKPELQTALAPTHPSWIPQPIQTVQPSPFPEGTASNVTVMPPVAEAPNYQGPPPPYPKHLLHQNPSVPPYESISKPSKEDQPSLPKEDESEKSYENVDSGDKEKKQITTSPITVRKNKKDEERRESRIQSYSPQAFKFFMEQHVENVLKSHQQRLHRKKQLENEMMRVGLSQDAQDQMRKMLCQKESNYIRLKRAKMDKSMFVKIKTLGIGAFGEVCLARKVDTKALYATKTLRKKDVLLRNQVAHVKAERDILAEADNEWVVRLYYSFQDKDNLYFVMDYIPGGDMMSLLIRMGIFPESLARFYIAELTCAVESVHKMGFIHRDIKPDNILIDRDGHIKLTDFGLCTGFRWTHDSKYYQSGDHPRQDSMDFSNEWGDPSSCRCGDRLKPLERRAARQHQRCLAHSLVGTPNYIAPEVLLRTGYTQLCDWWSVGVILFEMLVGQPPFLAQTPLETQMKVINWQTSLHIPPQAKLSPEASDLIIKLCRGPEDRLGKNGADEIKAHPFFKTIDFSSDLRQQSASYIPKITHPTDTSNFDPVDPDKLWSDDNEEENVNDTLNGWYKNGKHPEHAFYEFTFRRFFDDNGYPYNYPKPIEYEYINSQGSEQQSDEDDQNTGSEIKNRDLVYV
As to the kind of experiment: RBC HotSpot kinase assay (33P-ATP, P81 filter-binding), LATS1. Particulars: read-out: LATS1 IC50. Here is the method:
as §1, §2, §3, §4, §5, §6

Another test has as its target T2, LATS2 (Homo sapiens, UniProt Q9NRM7).
T2 sequence (Q9NRM7 1-1088): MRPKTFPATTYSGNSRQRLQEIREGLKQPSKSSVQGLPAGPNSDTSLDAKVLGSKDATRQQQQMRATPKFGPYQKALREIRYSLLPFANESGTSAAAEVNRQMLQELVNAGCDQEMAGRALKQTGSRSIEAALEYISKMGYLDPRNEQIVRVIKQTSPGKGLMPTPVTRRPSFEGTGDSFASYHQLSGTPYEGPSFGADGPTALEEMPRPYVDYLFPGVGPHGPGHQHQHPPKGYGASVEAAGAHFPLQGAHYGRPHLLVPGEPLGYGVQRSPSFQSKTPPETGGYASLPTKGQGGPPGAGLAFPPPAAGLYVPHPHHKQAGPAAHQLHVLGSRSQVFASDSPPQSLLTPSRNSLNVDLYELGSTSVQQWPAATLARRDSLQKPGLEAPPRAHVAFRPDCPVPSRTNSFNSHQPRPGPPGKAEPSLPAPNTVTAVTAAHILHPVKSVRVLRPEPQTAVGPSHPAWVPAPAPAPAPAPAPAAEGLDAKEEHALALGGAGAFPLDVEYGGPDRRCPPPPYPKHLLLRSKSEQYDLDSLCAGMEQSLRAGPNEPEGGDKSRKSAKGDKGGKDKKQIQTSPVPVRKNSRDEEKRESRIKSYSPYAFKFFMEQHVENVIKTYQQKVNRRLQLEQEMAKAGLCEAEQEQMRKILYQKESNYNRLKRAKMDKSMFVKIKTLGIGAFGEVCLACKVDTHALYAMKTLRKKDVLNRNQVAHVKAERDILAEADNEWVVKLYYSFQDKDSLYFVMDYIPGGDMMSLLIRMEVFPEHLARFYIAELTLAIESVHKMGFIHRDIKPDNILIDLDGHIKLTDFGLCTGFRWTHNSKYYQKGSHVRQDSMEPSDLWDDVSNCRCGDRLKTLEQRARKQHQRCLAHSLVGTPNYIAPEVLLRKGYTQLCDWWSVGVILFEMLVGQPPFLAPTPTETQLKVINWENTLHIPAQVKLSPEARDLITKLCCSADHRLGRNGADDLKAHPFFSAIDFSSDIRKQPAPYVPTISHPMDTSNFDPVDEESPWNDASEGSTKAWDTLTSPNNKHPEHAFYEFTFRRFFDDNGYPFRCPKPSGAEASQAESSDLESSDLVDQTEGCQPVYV
As to the kind of experiment: RBC HotSpot kinase assay (33P-ATP, P81 filter-binding), LATS2. Particulars: read-out: LATS2 IC50. The method, then: as §1, §2, §3, §4, §5, §6

Setting [1] is: Table 28, biochemical kinase assay.

For the compound `Cc1cc(-c2ccnc3[nH]cc(C#N)c23)cc(F)c1[C@@]1(O)[C@H](C)CN(C(=O)[C@H](N)CO)C[C@@H]1C` (single isomer, unassigned) [Compound 2006], the figures for the half-maximal inhibitory concentration (IC50) on AKT (biochemical kinase inhibition), at LATS1 (biochemical kinase inhibition) and on LATS2 (biochemical kinase inhibition) were 126 nM, 3.6 nM and 1.4 nM, respectively.
For the compound `Cc1c[nH]c2nccc(-c3ccc([C@@]4(O)[C@H](C)CNC[C@@H]4C)cn3)c12` [Compound 3, (3R,4s,5S)-3,5-dimethyl-4-(6-(3-methyl-1H-pyrrolo[2,3-b]pyridin-4-yl)pyridin-3-yl)piperidin-4-ol], the IC50 – broadly, the midpoint of a concentration-inhibition curve – came to 4410 nM at AKT (setting [1]), 72.3 nM on LATS1 (setting [1]) and 49.6 nM on LATS2 (setting [1]).
With `COc1cc(-c2ccnc3[nH]cc(F)c23)ncc1[C@@]1(O)[C@H](C)CNC[C@@H]1C` [Compound 4, (3R,4s,5S)-4-(6-(3-fluoro-1H-pyrrolo[2,3-b]pyridin-4-yl)-4-methoxypyridin-3-yl)-3,5-dimethylpiperidin-4-ol], the IC50 came to 4160 nM at AKT (setting [1]), 18.2 nM on LATS1 (setting [1]) and 56.7 nM at LATS2 (setting [1]).
On the same counts, the results for `C[C@@H]1CN(C)C[C@H](C)[C@@]1(O)c1ccc(-c2ccnc3[nH]cc(F)c23)cc1Cl` [Compound 5, (3S,4s,5R)-4-(2-chloro-4-(3-fluoro-1H-pyrrolo[2,3-b]pyridin-4-yl)phenyl)-1,3,5-trimethylpiperidin-4-ol] are 67 nM, 9.2 nM and 12.5 nM.
Turning to `CC(C)N1C[C@@H](C)[C@](O)(c2ccc(-c3ccnc4[nH]cc(F)c34)cc2Cl)[C@@H](C)C1` [Compound 6, (3S,4s,5R)-4-(2-chloro-4-(3-fluoro-1H-pyrrolo[2,3-b]pyridin-4-yl)phenyl)-1-isopropyl-3,5-dimethylpiperidin-4-ol], the concentration for half-maximal inhibition (IC50) at AKT (setting [1]) was found to be 90.9 nM; on LATS1 (setting [1]), 1.3 nM; at LATS2 (setting [1]) it was 1.4 nM.
As to `Cc1nc(-c2ccnc3[nH]cc(F)c23)ccc1[C@@]1(O)[C@H](C)CNC[C@@H]1C` [Compound 10, (3S,4s,5R)-4-(6-(3-fluoro-1H-pyrrolo[2,3-b]pyridin-4-yl)-2-methylpyridin-3-yl)-3,5-dimethylpiperidin-4-ol], the IC50 at AKT (setting [1]) is 1720 nM; at LATS1 (setting [1]), 23.7 nM; on LATS2 (setting [1]), 20.3 nM.
Take `C[C@@H]1CNC[C@H](C)[C@@]1(O)c1ccc(-c2ccnc3[nH]cc(F)c23)cc1C(F)(F)F` [Compound 11, (3S,4s,5R)-4-(4-(3-fluoro-1H-pyrrolo[2,3-b]pyridin-4-yl)-2-(trifluoromethyl)phenyl)-3,5-dimethylpiperidin-4-ol]: the IC50 on AKT (setting [1]) was determined as 143 nM; at LATS1 (setting [1]), 11.1 nM; on LATS2 (setting [1]) it was 10.7 nM.
As to `Cc1cc(-c2ccnc3[nH]cc(F)c23)cc(Cl)c1[C@@]1(O)[C@H](C)CNC[C@@H]1C` [Compound 12, (3S,4s,5R)-4-(2-chloro-4-(3-fluoro-1H-pyrrolo[2,3-b]pyridin-4-yl)-6-methylphenyl)-3,5-dimethylpiperidin-4-ol], the IC50 on AKT (setting [1]) was determined as 10.1 nM; at LATS1 (setting [1]), 201 nM; on LATS2 (setting [1]), 81.2 nM.
The like results for `Cc1c[nH]c2nccc(-c3cc(F)c([C@@]4(O)[C@H](C)CNC[C@@H]4C)c(F)c3)c12` [Compound 15] were, in that order, 362 nM, 8.5 nM and 7.2 nM.
Turning to `Cc1cc(-c2ccnc3[nH]cc(F)c23)cc(F)c1[C@@]1(O)[C@H](C)CNC[C@@H]1C` [Compound 16, (3S,4s,5R)-4-(2-fluoro-4-(3-fluoro-1H-pyrrolo[2,3-b]pyridin-4-yl)-6-methylphenyl)-3,5-dimethylpiperidin-4-ol], the half-inhibitory concentration (IC50) on AKT (setting [1]) is 201 nM; on LATS1 (setting [1]), 7.1 nM; on LATS2 (setting [1]) it was 10 nM.
As to `C[C@@H]1CN(Cc2ccncc2)C[C@H](C)[C@@]1(O)c1c(F)cc(-c2ccnc3[nH]cc(F)c23)cc1F` [Compound 19, (3S,4s,5R)-4-(2,6-difluoro-4-(3-fluoro-1H-pyrrolo[2,3-b]pyridin-4-yl)phenyl)-3,5-dimethyl-1-(pyridin-4-ylmethyl)piperidin-4-ol], the IC50 came out at 1020 nM on AKT (setting [1]), 11 nM on LATS1 (setting [1]) and 9.2 nM at LATS2 (setting [1]).
As for `C[C@@H]1CN(C2CCC2)C[C@H](C)[C@@]1(O)c1ccc(-c2ccnc3[nH]cc(F)c23)cc1Cl` [Compound 20, (3S,4s,5R)-4-(2-chloro-4-(3-fluoro-1H-pyrrolo[2,3-b]pyridin-4-yl)phenyl)-1-cyclobutyl-3,5-dimethylpiperidin-4-ol], the values for the concentration for half-maximal inhibition (IC50) on AKT (setting [1]), on LATS1 (setting [1]) and on LATS2 (setting [1]) were 195 nM, 2.6 nM and 2.7 nM, respectively.
For `C[C@@H]1CN(C2COC2)C[C@H](C)[C@@]1(O)c1ccc(-c2ccnc3[nH]cc(F)c23)cc1Cl` [Compound 21, (3S,4s,5R)-4-(2-chloro-4-(3-fluoro-1H-pyrrolo[2,3-b]pyridin-4-yl)phenyl)-3,5-dimethyl-1-(oxetan-3-yl)piperidin-4-ol], the half-inhibitory concentration (IC50) worked out at 249 nM at AKT (setting [1]), 3 nM on LATS1 (setting [1]) and 2.8 nM on LATS2 (setting [1]).
Consider `C[C@@H]1CN(C2CCS(=O)(=O)CC2)C[C@H](C)[C@@]1(O)c1ccc(-c2ccnc3[nH]cc(F)c23)cc1Cl` [Compound 26, 4-((3S,4s,5R)-4-(2-chloro-4-(3-fluoro-1H-pyrrolo[2,3-b]pyridin-4-yl)phenyl)-4-hydroxy-3,5-dimethylpiperidin-1-yl)tetrahydro-2H-thiopyran 1,1-dioxide], for which the 50% inhibitory concentration (IC50) on AKT (setting [1]) turned out to be 18.8 nM; at LATS1 (setting [1]), 0.73 nM; at LATS2 (setting [1]) it was 0.51 nM.
